Reference: patent US11566007B2, “Ras inhibitors” (Revolution Medicines, Inc., priority 2019, dated 2023)

Key:
[1] = test system: NCI-H358 cells (K-Ras G12C); assay: Potency assay: pERK in NCI-H358 cells; format: cell-based, human; details: Homo sapiens, NCI-H358; H358 KRAS G12C; read-out: pERK EC50
In short: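 Inhibition of cellular pERK after a 4 h treatment, detected by AlphaLISA or In-Cell Western. IC50 from a four-parameter concentration-response fit.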

K-Ras G13C = K-Ras G13C (Homo sapiens (Human), UniProt P01116+P62937, G13C); assay: Ras-Raf (BRAF RBD) disruption / FRET / MOA assay, KRAS G13C; format: biochemical; details: KRAS G13C; Ras-Raf disruption/FRET/MOA assay; read-out: IC50* KRAS G13C FRET data
In short: (§1)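 Compounds, top final concentration 30 μM in 10-point 3-fold series, incubated 3 hours at 25° C with nucleotide-loaded Ras, cyclophilin A and BRAF RBD.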

KRAS G12S = KRAS G12S (Homo sapiens (Human), UniProt P01116+P62937, G12S); assay: Ras-Raf (BRAF RBD) disruption / FRET / MOA assay, KRAS G12S; format: biochemical; details: Ras-Raf disruption/FRET/MOA assay; class symbols; read-out: KRAS G12S FRET data IC50
In short: as §1

KRAS WT = KRAS WT (Homo sapiens (Human), UniProt P01116+P62937); assay: Ras-Raf (BRAF RBD) disruption / FRET / MOA assay, KRAS WT; format: biochemical; details: read-out: IC50* KRAS WT FRET data
In short: as §1

KRAS G13D = KRAS G13D (Homo sapiens (Human), UniProt P01116+P62937, G13D); assay: Ras-Raf (BRAF RBD) disruption / FRET / MOA assay, KRAS G13D; format: biochemical; details: read-out: IC50* KRAS G13D FRET data
In short: as §1

NRAS G12C = NRAS G12C (Homo sapiens (Human), UniProt P01111+P62937, G12C); assay: Ras-Raf (BRAF RBD) disruption / FRET / MOA assay, NRAS G12C; format: biochemical; details: read-out: IC50* NRAS G12C FRET data
In short: as §1

NRAS Q61K = NRAS Q61K (Homo sapiens (Human), UniProt P01111+P62937, Q61K); assay: Ras-Raf (BRAF RBD) disruption / FRET / MOA assay, NRAS Q61K; format: biochemical; details: NRAS Q61K; Ras-Raf disruption/FRET/MOA assay; read-out: IC50* NRAS Q61K FRET data
In short: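 TR-FRET disruption of nucleotide-loaded Ras binding to BRAF RBD via compound-driven ternary complex with cyclophilin A. Compound as 10-point 3-fold series from 30 μM final, 3 h at 25° C, then anti-His Eu-W1024 (10 nM) and anti-GST allophycocyanin (50 nM) for 1.5 h. IC50 from decreased FRET ratio versus DMSO.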

K-Ras G13C, sequence (P01116-2 other isoform, or with tags, fused parts or gaps G13C): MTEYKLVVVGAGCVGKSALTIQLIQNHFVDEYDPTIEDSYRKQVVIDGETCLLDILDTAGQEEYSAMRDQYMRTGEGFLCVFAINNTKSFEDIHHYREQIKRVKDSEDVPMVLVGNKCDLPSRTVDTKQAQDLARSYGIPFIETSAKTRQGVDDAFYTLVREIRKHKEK
K-Ras G13C, sequence (P62937 whole entry): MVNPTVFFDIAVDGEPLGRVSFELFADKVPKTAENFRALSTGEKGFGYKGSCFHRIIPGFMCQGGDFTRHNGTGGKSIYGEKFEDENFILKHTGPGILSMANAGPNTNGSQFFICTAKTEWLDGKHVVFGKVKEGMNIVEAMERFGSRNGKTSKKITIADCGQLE
NRAS Q61K, sequence (P01111 whole entry Q61K): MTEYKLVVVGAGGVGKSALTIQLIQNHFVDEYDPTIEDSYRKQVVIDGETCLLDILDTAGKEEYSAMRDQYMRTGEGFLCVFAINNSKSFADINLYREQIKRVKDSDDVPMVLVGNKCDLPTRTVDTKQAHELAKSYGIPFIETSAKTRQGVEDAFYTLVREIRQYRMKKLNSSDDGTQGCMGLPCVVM
NRAS Q61K, sequence (P62937 whole entry): as the sequence (P62937 whole entry) above
KRAS WT, sequence (P01116-2 other isoform, or with tags, fused parts or gaps): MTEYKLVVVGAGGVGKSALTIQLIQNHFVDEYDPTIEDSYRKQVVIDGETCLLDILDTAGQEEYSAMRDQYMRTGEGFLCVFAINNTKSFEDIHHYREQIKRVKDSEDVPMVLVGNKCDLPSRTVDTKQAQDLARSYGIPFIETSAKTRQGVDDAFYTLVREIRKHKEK
KRAS WT, sequence (P62937 whole entry): as the sequence (P62937 whole entry) above
NRAS G12C, sequence (P01111 whole entry G12C): as the sequence (P01111 whole entry Q61K) above, with G12C, K61Q counted along it
NRAS G12C, sequence (P62937 whole entry): as the sequence (P62937 whole entry) above
KRAS G12S, sequence (P01116-2 other isoform, or with tags, fused parts or gaps G12S): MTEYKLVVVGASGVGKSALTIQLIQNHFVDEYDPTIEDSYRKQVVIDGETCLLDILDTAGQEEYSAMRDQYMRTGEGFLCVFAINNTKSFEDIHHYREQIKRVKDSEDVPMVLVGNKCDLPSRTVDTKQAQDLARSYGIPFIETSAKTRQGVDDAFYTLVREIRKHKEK
KRAS G12S, sequence (P62937 whole entry): as the sequence (P62937 whole entry) above
KRAS G13D, sequence (P01116-2 other isoform, or with tags, fused parts or gaps G13D): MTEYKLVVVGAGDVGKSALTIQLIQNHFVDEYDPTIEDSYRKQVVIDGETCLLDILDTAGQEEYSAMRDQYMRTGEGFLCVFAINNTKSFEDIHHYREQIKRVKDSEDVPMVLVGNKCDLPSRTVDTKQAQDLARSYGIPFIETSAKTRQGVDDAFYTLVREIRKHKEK
KRAS G13D, sequence (P62937 whole entry): as the sequence (P62937 whole entry) above

Q: Which EC50 [1] does the source give for `CO[C@@H](COC1CN(C(=O)C#CC(C)(C)N(C)C)C1)C(=O)N[C@H]1Cc2coc(n2)-c2ccc3c(c2)c(c(-c2cccnc2[C@H](C)OC)n3CC(F)(F)F)CC(C)(C)COC(=O)[C@@H]2CCCN(N2)C1=O` (atropisomer, axis not shown) [Example A579] here?
A: < 5 µM

Q: And the IC50 (K-Ras G13C)?
A: 1 to 10 µM

Q: And the IC50 (KRAS G12S)?
A: 1 to 10 µM

Q: What about the IC50 (KRAS WT) of the same molecule?
A: 1 to 10 µM

Q: What about the IC50 (KRAS G13D) of the same molecule?
A: > 10 µM

Q: What about the IC50 (NRAS G12C) of the same molecule?
A: < 0.01 µM

Q: What about the IC50 (NRAS Q61K) of the same molecule?
A: > 10 µM

Q: With `CCn1c(-c2cccnc2[C@H](C)OC)c2c3cc(ccc31)-c1csc(n1)C[C@H](NC(=O)[C@H](C(C)C)N(C)C(=O)N1CCC3(CC1)CN(C(=O)/C=C/CN1CCOCC1)C3)C(=O)N1CCC[C@H](N1)C(=O)OCC(C)(C)C2` (atropisomer, axis not shown) [Example A669] as the molecule, how does the EC50 [1] read?
A: < 5 µM

Q: What about the IC50 (K-Ras G13C) of the same molecule?
A: 0.1 to 1 µM

Q: And the IC50 (KRAS G12S)?
A: 0.1 to 1 µM

Q: And the IC50 (KRAS WT)?
A: 0.1 to 1 µM

Q: And the IC50 (KRAS G13D)?
A: 0.1 to 1 µM

Q: What about the IC50 (NRAS G12C) of the same molecule?
A: 0.01 to 0.1 µM

Q: And the IC50 (NRAS Q61K)?
A: 0.01 to 0.1 µM

Q: For `C=CC(=O)N1CCO[C@H]2CN(C(=O)N(C)[C@H](C(=O)N[C@H]3Cc4cccc(n4)-c4ccc5c(c4)c(c(-c4cccnc4[C@H](C)OC)n5CC(F)(F)F)CC(C)(C)COC(=O)[C@@H]4CCCN(N4)C3=O)C(C)C)C[C@H]21` (atropisomer, axis not shown) [Example A595], which EC50 [1] is on record?
A: < 5 µM

Q: What about the IC50 (K-Ras G13C) of the same molecule?
A: 0.01 to 0.1 µM

Q: What about the IC50 (KRAS G12S) of the same molecule?
A: 1 to 10 µM

Q: And the IC50 (KRAS WT)?
A: 0.1 to 1 µM

Q: And the IC50 (KRAS G13D)?
A: 1 to 10 µM

Q: What about the IC50 (NRAS G12C) of the same molecule?
A: 0.01 to 0.1 µM

Q: And the IC50 (NRAS Q61K)?
A: 0.1 to 1 µM

Q: Which results are given for `C=CC(=O)N1CCC2(CC1)CCN(C(=O)N(C)[C@H](C(=O)N[C@H]1Cc3nc(cs3)-c3ccc4c(c3)c(c(-c3cccnc3[C@H](C)OC)n4CC)CC(C)(C)COC(=O)[C@@H]3CCCN(N3)C1=O)C(C)C)CC2` (atropisomer, axis not shown) [Example A697]?
A: EC50 [1]: < 5 µM; IC50 (K-Ras G13C): 0.1 to 1 µM; IC50 (KRAS G12S): 0.1 to 1 µM; IC50 (KRAS WT): 0.1 to 1 µM; IC50 (KRAS G13D): 0.1 to 1 µM; IC50 (NRAS G12C): 0.01 to 0.1 µM; IC50 (NRAS Q61K): 0.01 to 0.1 µM

Q: `C=CC(=O)N(C)C[C@@H]1CCN(C(=O)N(C)[C@H](C(=O)N[C@H]2Cc3nc(cs3)-c3ccc4c(c3)c(c(-c3cccnc3[C@H](C)OC)n4CC)CC(C)(C)COC(=O)[C@@H]3CCCN(N3)C2=O)C(C)C)C1` (atropisomer, axis not shown) [Example A654] was tested. Which EC50 [1] did it give?
A: < 5 µM

Q: And the IC50 (K-Ras G13C)?
A: 0.1 to 1 µM

Q: And the IC50 (KRAS G12S)?
A: 0.1 to 1 µM

Q: And the IC50 (KRAS WT)?
A: 0.1 to 1 µM

Q: And the IC50 (KRAS G13D)?
A: 0.1 to 1 µM

Q: What about the IC50 (NRAS G12C) of the same molecule?
A: 0.01 to 0.1 µM

Q: What about the IC50 (NRAS Q61K) of the same molecule?
A: 0.01 to 0.1 µM

Q: How did the EC50 [1] turn out when `CCn1c(-c2cccnc2[C@H](C)OC)c2c3cc(ccc31)-c1cccc(c1)C[C@H](NC(=O)[C@@H](COC1CN(C(=O)C#CC(C)(C)N3CCC3)C1)C(C)C)C(=O)N1CCC[C@H](N1)C(=O)OCC(C)(C)C2` (atropisomer, axis not shown) [Example A346] was run?
A: < 5 µM

Q: And the IC50 (K-Ras G13C)?
A: 1 to 10 µM

Q: What about the IC50 (KRAS G12S) of the same molecule?
A: > 10 µM

Q: What about the IC50 (KRAS WT) of the same molecule?
A: > 10 µM

Q: What about the IC50 (KRAS G13D) of the same molecule?
A: > 10 µM

Q: And the IC50 (NRAS G12C)?
A: 0.01 to 0.1 µM

Q: What about the IC50 (NRAS Q61K) of the same molecule?
A: > 10 µM

Q: Which results are given for `CCn1c(-c2cccnc2[C@H](C)OC)c2c3cc(ccc31)C1=CCCN(C1)C[C@H](NC(=O)[C@@H](COC1CN(C(=O)C#CC(C)(C)N(C)C)C1)C(C)C)C(=O)N1CCC[C@H](N1)C(=O)OCC(C)(C)C2` (atropisomer, axis not shown) [Example A663, (2R)-2-(((1-(4-(dimethylamino)-4-methylpent-2-ynoyl)405yridine405-3-yl)oxy)methyl)-N-((6^3S,4S)-1^1-ethyl-1^2-(2-((S)-1-methoxyethyl)405yridine-3-yl)-10,10-dimethyl-5,7-dioxo-2^1,2^2,2^3,2^6,6^1,6^2,6^3,6^4,6^5,6^6-decahydro-1^1H-8-oxa-1(5,3)-indola-6(1,3)-pyridazina-2(5,1)-pyridinacycloundecaphane-4-yl)-3-methylbutanamide]?
A: EC50 [1]: < 5 µM; IC50 (K-Ras G13C): 1 to 10 µM; IC50 (KRAS G12S): > 10 µM; IC50 (KRAS WT): > 10 µM; IC50 (KRAS G13D): > 10 µM; IC50 (NRAS G12C): < 0.01 µM; IC50 (NRAS Q61K): > 10 µM

Q: `CO[C@@H](C)c1ncccc1-c1c2c3cc(ccc3n1CC(F)(F)F)-c1cc(F)cc(c1)C[C@H](NC(=O)[C@@H](COC1CN(C(=O)C#CC(C)(C)N(C)C)C1)C(C)C)C(=O)N1CCC[C@H](N1)C(=O)OCC(C)(C)C2` (atropisomer, axis not shown) [Example A348] was tested. Which EC50 [1] did it give?
A: < 5 µM

Q: What about the IC50 (K-Ras G13C) of the same molecule?
A: 1 to 10 µM

Q: And the IC50 (KRAS G12S)?
A: 1 to 10 µM

Q: And the IC50 (KRAS WT)?
A: 1 to 10 µM

Q: What about the IC50 (KRAS G13D) of the same molecule?
A: > 10 µM

Q: And the IC50 (NRAS G12C)?
A: < 0.01 µM

Q: And the IC50 (NRAS Q61K)?
A: > 10 µM
